Laboratory results: patent publication US9427691B2, “Antimicrobial air filter” (PTI Technologies, Inc., priority 2014, dated 2016)

How the values were obtained:
Format in all cases: cell-based
[1] = tested on: Staphylococcus aureus (ATCC #6538); assay: quantitative test for bacterial growth on treated air filter media; settings: for # of Bacteria Recovered / % Reduction / Log Reduction (S): air filter media saturated with solution and dried, 18 hours at 37 C
Method: There are various anti-microbial agents that are available for application to the air filter media 16. […] To determine the effectiveness of an antimicrobial agent with regard to bacteria, samples of air filter media 16 were treated with various solutions of antimicrobial agents and subjected to a quantitative test. In the quantitative test for bacterial growth, an air filter media sample was saturated with a solution of an antimicrobial agent and allowed to dry. The air filter media sample was then placed in a sealed container and a 0.2 mL inoculum of Staphylococcus aureus (ATCC #6538) was placed, in microdroplets, on the surface of the air filter media sample. A solution having a 0.05% concentration of polysorbate 80 was added to the inoculum as a wetting agent. The air filter media sample was then incubated for 18 hours at a temperature of 37 C°. After incubation, 20 mL of […] broth was added to the container, and the container was shaken. The bacteria in the resulting liquid were then quantified using a series of dilution plates.

Aspergillus niger fungus = assay: antifungal test AATCC Test Method 30-2013 on treated air filter media
Method: (§1) Air filter media samples treated with the aforementioned antimicrobial solutions were then tested for antifungal properties using the common American Association of Textile Chemists and Colorists (AATCC) Test Method 30-2013. […] A larger growth-free zone indicates higher antifungal properties, and a higher surface inhibition indicates higher antifungal properties. The test was performed for both Aspergillus niger and Trichoderma virens species of fungus.

[2] = tested on: Trichoderma virens fungus; assay: as above
Method: as §1

| SMILES | effectiveness at inhibiting bacterial growth (in words) [1] | # of Bacteria Recovered [1] | % Reduction [1] [%] | Log Reduction (S) [1] | effectiveness at inhibiting fungal growth (in words) (Aspergillus niger fungus) | Growth-Free Zone in MM (Aspergillus niger fungus; treated filter media) [MM] | Surface Inhibition (Aspergillus niger fungus; treated filter media) | effectiveness at inhibiting fungal growth (in words) [2] | Growth-Free Zone in MM ([2]; treated filter media) [MM] | Surface Inhibition ([2]; treated filter media) |
| --- | --- | --- | --- | --- | --- | --- | --- | --- | --- | --- |
| Cc1ccc(S(=O)(=O)C(I)I)cc1 [1% diiodomethyl-p-tolyl sulfone, diiodomethyl-p-tolyl sulfone] | most effective | <2.00 × 10^1 | >99.9 | >4.8 | did not inhibit any growth | 0 | 0 | limited in its effectiveness | 0 | 50 |
| [Cl][Ag] [2% silver chloride, silver chloride] | – | 1.81 × 10^4 | 98.6 | 1.8 | – | – | – | – | – | – |
